Assay results taken from patent US11028079B2 (ConverGene LLC, priority 2015, dated 2021).

These molecules were tested against T1, BRD4 bromodomains (Homo sapiens, UniProt O60885) (assay: BROMOscan bromodomain competition binding assay (DiscoveRx)). Conditions: Kd from 11 compound concentrations ranging from 0 to 10 μM, read-out: BROMOscan Relative Activity.
T1 construct: fused on or other part: T7 phage capsid protein (phage-display fusion; the phage DNA is read out by qPCR)
Procedure, shortened: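 Compounds in 0.1% DMSO/0.9% MEG competed with a solid-phase acetylated peptide for T7 phage-fused BRD4 bromodomains, with the retained bromodomain measured by qPCR.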

Row | Kd [nM] | SMILES
1 | < 500 | Cc1nocc1-c1ccc2nc(N3CCN(CCN(C)C)CC3)nc(NCc3cccc(Cl)c3)c2c1 [Example 93, N-(3-chlorobenzyl)-2-(4-(2-(dimethylamino)ethyl)piperazin-1-yl)-6-(3-methylisoxazol-4-yl)quinazolin-4-amine]
2 | < 500 | Cc1noc(C)c1-c1ccc2nc(N3CCN(CCN(C)C)CC3)nc(NCc3ccc(Cl)s3)c2c1 [Example 94, N-((5-chlorothiophen-2-yl)methyl)-2-(4-(2-(dimethylamino)ethyl)piperazin-1-yl)-6-(3,5-dimethylisoxazol-4-yl)quinazolin-4-amine]
3 | 500 to 5000 | Cc1noc(C)c1-c1ccc2nc(N3CCN(CCN(C)C)CC3)nc(NCc3ccc(Cl)cc3)c2c1 [Example 95, N-(4-chlorobenzyl)-2-(4-(2-(dimethylamino)ethyl)piperazin-1-yl)-6-(3,5-dimethylisoxazol-4-yl)quinazolin-4-amine]
4 | > 5000 | CN(C)CCN1CCN(c2nc(NCc3cccc(Cl)c3)c3cc(-c4ccnc(O)c4)ccc3n2)CC1 [Example 96, 4-(4-((3-chlorobenzyl)amino)-2-(4-(2-(dimethylamino)ethyl)piperazin-1-yl)quinazolin-6-yl)pyridin-2-ol]
5 | < 500 | Cc1noc(C)c1-c1ccc2nc(-c3cnn(CC(=O)N(C)C)c3)nc(NCc3cccc(Cl)c3)c2c1 [Example 98, 2-(4-(4-((3-chlorobenzyl)amino)-6-(3,5-dimethylisoxazol-4-yl)quinazolin-2-yl)-1H-pyrazol-1-yl)-N,N-dimethylacetamide]
6 | 500 to 5000 | Cc1noc(C)c1-c1ccc2nc(N3CCN(CCN(C)C)CC3)nc(NCc3ccc(F)cc3)c2c1 [Example 99, 2-(4-(2-(dimethylamino)ethyl)piperazin-1-yl)-6-(3,5-dimethylisoxazol-4-yl)-N-(4-fluorobenzyl)quinazolin-4-amine]
7 | > 5000 | Cn1cc(-c2ccc3nc(Cl)nc(NCc4cccc(Cl)c4)c3c2)ccc1=O [Example 100, 5-(2-chloro-4-((3-chlorobenzyl)amino)quinazolin-6-yl)-1-methylpyridin-2(1H)-one]
8 | < 500 | Cn1cc(-c2ccc3nc(-c4cnn(CC(N)=O)c4)nc(NCc4cccc(Cl)c4)c3c2)ccc1=O [Example 101, 2-(4-(4-((3-chlorobenzyl)amino)-6-(1-methyl-6-oxo-1,6-dihydropyridin-3-yl)quinazolin-2-yl)-1H-pyrazol-1-yl)acetamide]
9 | < 500 | CNC(=O)Cn1cc(-c2nc(NCc3cccc(Cl)c3)c3cc(-c4ccc(=O)n(C)c4)ccc3n2)cn1 [Example 102, 2-(4-(4-((3-chlorobenzyl)amino)-6-(1-methyl-6-oxo-1,6-dihydropyridin-3-yl)quinazolin-2-yl)-1H-pyrazol-1-yl)-N-methylacetamide]
10 | < 500 | Cn1cc(-c2ccc3nc(-c4cnn(CC(C)(C)O)c4)nc(NCc4cccc(Cl)c4)c3c2)ccc1=O [Example 103, 5-(4-((3-chlorobenzyl)amino)-2-(1-(2-hydroxy-2-methylpropyl)-1H-pyrazol-4-yl)quinazolin-6-yl)-1-methylpyridin-2(1H)-one]
11 | < 500 | Cn1cc(-c2ccc3nc(-c4cnn(CCC#N)c4)nc(NCc4cccc(Cl)c4)c3c2)ccc1=O [Example 104, 3-(4-(4-((3-chlorobenzyl)amino)-6-(1-methyl-6-oxo-1,6-dihydropyridin-3-yl)quinazolin-2-yl)-1H-pyrazol-1-yl)propanenitrile]
12 | < 500 | Cn1cc(-c2ccc3nc(-c4cnn(C(C)(C)CO)c4)nc(NCc4cccc(Cl)c4)c3c2)ccc1=O [Example 105, 5-(4-((3-chlorobenzyl)amino)-2-(1-(1-hydroxy-2-methylpropan-2-yl)-1H-pyrazol-4-yl)quinazolin-6-yl)-1-methylpyridin-2(1H)-one]
13 | < 500 | Cn1cc(-c2ccc3nc(N4CCN(C(=O)CO)CC4)nc(NCc4cccc(Cl)c4)c3c2)ccc1=O [Example 106, 5-(4-((3-chlorobenzyl)amino)-2-(4-(2-hydroxyacetyl)piperazin-1-yl)quinazolin-6-yl)-1-methylpyridin-2(1H)-one]
14 | < 500 | Cn1cc(-c2ccc3nc(N4CCN(C(=O)CN)CC4)nc(NCc4cccc(Cl)c4)c3c2)ccc1=O [Example 107, 5-(2-(4-(2-aminoacetyl)piperazin-1-yl)-4-((3-chlorobenzyl)amino)quinazolin-6-yl)-1-methylpyridin-2(1H)-one]
15 | < 500 | Cn1cc(-c2ccc3nc(N4CCN(CC(N)=O)CC4)nc(NCc4cccc(Cl)c4)c3c2)ccc1=O [Example 108, 2-(4-(4-((3-chlorobenzyl)amino)-6-(1-methyl-6-oxo-1,6-dihydropyridin-3-yl)quinazolin-2-yl)piperazin-1-yl)acetamide]
16 | < 500 | CNC(=O)CN1CCN(c2nc(NCc3cccc(Cl)c3)c3cc(-c4ccc(=O)n(C)c4)ccc3n2)CC1 [Example 109, 2-(4-(4-((3-chlorobenzyl)amino)-6-(1-methyl-6-oxo-1,6-dihydropyridin-3-yl)quinazolin-2-yl)piperazin-1-yl)-N-methylacetamide]

Row | Kd [nM] | SMILES
17 | < 500 | CN(C)C(=O)CN1CCN(c2nc(NCc3cccc(Cl)c3)c3cc(-c4ccc(=O)n(C)c4)ccc3n2)CC1 [Example 110, 2-(4-(4-((3-chlorobenzyl)amino)-6-(1-methyl-6-oxo-1,6-dihydropyridin-3-yl)quinazolin-2-yl)piperazin-1-yl)-N,N-dimethylacetamide]
18 | < 500 | C[C@H](O)CN1CCN(c2nc(NCc3cccc(Cl)c3)c3cc(-c4ccc(=O)n(C)c4)ccc3n2)CC1 [Example 111, (S)-5-(4-((3-chlorobenzyl)amino)-2-(4-(2-hydroxypropyl)piperazin-1-yl)quinazolin-6-yl)-1-methylpyridin-2(1H)-one]
19 | 500 to 5000 | Cc1noc(C)c1-c1ccc2nc(Cl)nc(NCc3cncc(Cl)c3)c2c1 [Example 112, 2-chloro-N-((5-chloropyridin-3-yl)methyl)-6-(3,5-dimethylisoxazol-4-yl)quinazolin-4-amine]
20 | > 5000 | Cn1cc(-c2ccc3nc(Cl)nc(NCc4cncc(Cl)c4)c3c2)ccc1=O [Example 113, 5-(2-chloro-4-(((5-chloropyridin-3-yl)methyl)amino)quinazolin-6-yl)-1-methylpyridin-2(1H)-one]
21 | 500 to 5000 | Cn1cc(-c2ccc3nc(-c4cnn(CCO)c4)nc(NCc4cccc(Cl)c4)c3c2)ccc1=O [Example 114, 5-(4-((3-chlorobenzyl)amino)-2-(1-(2-hydroxyethyl)-1H-pyrazol-4-yl)quinazolin-6-yl)-1-methylpyridin-2(1H)-one]
22 | < 500 | Cc1cncc(CNc2nc(N3CCN(CCN(C)C)CC3)nc3ccc(-c4c(C)noc4C)cc23)c1 [Example 115, 2-(4-(2-(dimethylamino)ethyl)piperazin-1-yl)-6-(3,5-dimethylisoxazol-4-yl)-N-((5-methylpyridin-3-yl)methyl)quinazolin-4-amine]
23 | > 5000 | CN(C)CCN1CCN(c2nc(NCc3cccc(Cl)c3)c3cc(-c4ccn(C)c(=O)c4)ccc3n2)CC1 [Example 116, 4-(4-((3-chlorobenzyl)amino)-2-(4-(2-(dimethylamino)ethyl)piperazin-1-yl)quinazolin-6-yl)-1-methylpyridin-2(1H)-one]
24 | < 500 | Cc1noc(C)c1-c1ccc2nc(N3CCN(CC(N)=O)CC3)nc(NCc3cncc(Cl)c3)c2c1 [Example 117, 2-(4-(4-(((5-chloropyridin-3-yl)methyl)amino)-6-(3,5-dimethylisoxazol-4-yl)quinazolin-2-yl)piperazin-1-yl)acetamide]
25 | < 500 | CNC(=O)CN1CCN(c2nc(NCc3cncc(Cl)c3)c3cc(-c4c(C)noc4C)ccc3n2)CC1 [Example 118, 2-(4-(4-(((5-chloropyridin-3-yl)methyl)amino)-6-(3,5-dimethylisoxazol-4-yl)quinazolin-2-yl)piperazin-1-yl)-N-methylacetamide]
26 | < 500 | Cc1noc(C)c1-c1ccc2nc(N3CCN(CC(=O)N(C)C)CC3)nc(NCc3cncc(Cl)c3)c2c1 [Example 119, 2-(4-(4-(((5-chloropyridin-3-yl)methyl)amino)-6-(3,5-dimethylisoxazol-4-yl)quinazolin-2-yl)piperazin-1-yl)-N,N-dimethylacetamide]
27 | < 500 | Cc1noc(C)c1-c1ccc2nc(N3CCN(CCO)CC3)nc(NCc3cncc(Cl)c3)c2c1 [Example 120, 2-(4-(4-(((5-chloropyridin-3-yl)methyl)amino)-6-(3,5-dimethylisoxazol-4-yl)quinazolin-2-yl)piperazin-1-yl)ethanol]
28 | < 500 | Cn1cc(-c2ccc3nc(N4CCN(CCO)CC4)nc(NCc4cccc(Cl)c4)c3c2)ccc1=O [Example 121, 5-(4-((3-chlorobenzyl)amino)-2-(4-(2-hydroxyethyl)piperazin-1-yl)quinazolin-6-yl)-1-methylpyridin-2(1H)-one]
29 | < 500 | Cn1cc(C(=O)N2CCN(c3nc(NCc4cccc(Cl)c4)c4cc(-c5ccc(=O)n(C)c5)ccc4n3)CC2)cn1 [Example 122, 5-(4-((3-chlorobenzyl)amino)-2-(4-(1-methyl-1H-pyrazole-4-carbonyl)piperazin-1-yl)quinazolin-6-yl)-1-methylpyridin-2(1H)-one]
30 | < 500 | CN(C)CCCN1CCN(c2nc(NCc3cccc(Cl)c3)c3cc(-c4ccc(=O)n(C)c4)ccc3n2)CC1 [Example 123, 5-(4-((3-chlorobenzyl)amino)-2-(4-(3-(dimethylamino)propyl)piperazin-1-yl)quinazolin-6-yl)-1-methylpyridin-2(1H)-one]
31 | < 500 | CN(C)CCN1CCN(c2nc(NCc3cncc(Cl)c3)c3cc(-c4ccc(=O)n(C)c4)ccc3n2)CC1 [Example 124, 5-(4-(((5-chloropyridin-3-yl)methyl)amino)-2-(4-(2-(dimethylamino)ethyl)piperazin-1-yl)quinazolin-6-yl)-1-methylpyridin-2(1H)-one]
32 | < 500 | CN(C)CCCN1CCN(c2nc(NCc3cncc(Cl)c3)c3cc(-c4ccc(=O)n(C)c4)ccc3n2)CC1 [Example 125, 5-(4-(((5-chloropyridin-3-yl)methyl)amino)-2-(4-(3-(dimethylamino)propyl)piperazin-1-yl)quinazolin-6-yl)-1-methylpyridin-2(1H)-one]
